Measurements as given in PMC12091851, “Replacing a Cereblon Ligand by a DDB1 and CUL4 Associated Factor 11 (DCAF11) Recruiter Converts a Selective Histone Deacetylase 6 PROTAC into a Pan‐Degrader” (Chemmedchem, 2025).

Target: HDAC4 (Homo sapiens, UniProt P56524)
Assay: HDAC enzyme inhibition assay
Type: biochemical
Parameters: purchased BPS Bioscience 50004
Protocol: Bio-Rad) to Immobilon-FL PVDF membranes (Catalog# IPFL00005, Mill ipore Merck, Burlington, MA, USA) at 1.0 A for 30 min and treated with 5% milk-powder solution for 1 h at room temperature […]
Signaling Technology) antibody solutions in 1:1000 –1:8000 dilutions at 4 °C overnight. […]
Significance testing was performed with a one -way analysis […]
compared to a reference mean value.
2.7. HDAC Enzyme Inhibition Assay […]
In vitro inhibitory activities against HDAC4 were measured using a previously published protocol with slight modifications. For test compounds and controls, serial dilutions of the respective DMSO stock solution in DMSO were prepared, and 1.0 μL /well of this serial dilution were transferred […]
into OptiPlate-96 black microplates (PerkinElmer, Waltham, […], USA). A volume of 4 µL/well assay […]
BSA) was added. In the case of HDAC1, 2, and 6, a volume of 35 μL/well of the fluorogenic substrate […]
The total assay volume of 50 μL (max. 2 % DMSO) was incubated at 37 °C for 90 min. Subsequently, 50 μL /well of trypsin (0.4 mg/mL) in trypsin buffer (50 mM Tris−HCl, pH 8.0, 100 mM NaCl) was added, followed by additional 30 min of incubation at […]
OPTIMA microplate reader (BMG labtech, Ortenburg, Germany). The half maximal inhibitory concentration (IC50) was determined by plotting dose response curves and nonlinear regression with GraphPad Prism (GraphPad Software).
2.8. […]

Chain of HDAC4 (P56524 627-1084 limits assumed): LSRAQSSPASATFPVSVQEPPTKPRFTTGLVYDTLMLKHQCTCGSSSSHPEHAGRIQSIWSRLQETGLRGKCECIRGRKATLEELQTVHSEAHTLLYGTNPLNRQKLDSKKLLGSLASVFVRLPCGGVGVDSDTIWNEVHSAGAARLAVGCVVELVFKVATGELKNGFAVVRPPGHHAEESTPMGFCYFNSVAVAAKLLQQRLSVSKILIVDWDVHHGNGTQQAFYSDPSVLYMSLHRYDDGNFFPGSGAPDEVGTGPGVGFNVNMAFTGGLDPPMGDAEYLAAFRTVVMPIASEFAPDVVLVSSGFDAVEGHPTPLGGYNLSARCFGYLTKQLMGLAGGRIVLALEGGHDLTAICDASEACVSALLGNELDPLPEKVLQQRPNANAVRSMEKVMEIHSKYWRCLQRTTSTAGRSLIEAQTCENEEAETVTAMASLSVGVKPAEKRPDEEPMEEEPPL

Row | IC50 | SMILES
1 | 12.4 ± 1.5 µM | O=C(CCCCCCNC(=O)c1ccc(NC(=O)CCCCCCCCCCCN(C(=O)CCl)C(C(=O)NCc2ccccc2)c2ccc(Cl)c(Cl)c2)cc1)NO (centres unmarked) [Compound 1j]
2 | 3.26 ± 0.08 µM | O=C(CCCCCCNC(=O)c1ccc(N(C(=O)CCl)C(C(=O)NCc2ccccc2)c2ccc(Cl)c(Cl)c2)cc1)NO (centres unmarked) [Compound 2]
